# Measured values as given in ChEMBL document CHEMBL1201862, “PubChem BioAssay data set” (2004).
# Active and inactive are the calls of the source.
# Tests used:
# [1] = target: FAD-linked sulfhydryl oxidase ALR (Homo sapiens, UniProt P55789); assay: inhibitors of human ALR sulfhydryl oxidase, dose response, biochemical, H2O2 detection, luminescence, cherry-pick (AID 493248)
# [2] = target: Voltage-dependent T-type calcium channel subunit alpha-1H (Homo sapiens, UniProt O95180); type: functional;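 also: channel activity triggered by adding a high calcium stimulation buffer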
# Voltage-dependent T-type calcium channel subunit alpha-1H, sequence (O95180 whole entry): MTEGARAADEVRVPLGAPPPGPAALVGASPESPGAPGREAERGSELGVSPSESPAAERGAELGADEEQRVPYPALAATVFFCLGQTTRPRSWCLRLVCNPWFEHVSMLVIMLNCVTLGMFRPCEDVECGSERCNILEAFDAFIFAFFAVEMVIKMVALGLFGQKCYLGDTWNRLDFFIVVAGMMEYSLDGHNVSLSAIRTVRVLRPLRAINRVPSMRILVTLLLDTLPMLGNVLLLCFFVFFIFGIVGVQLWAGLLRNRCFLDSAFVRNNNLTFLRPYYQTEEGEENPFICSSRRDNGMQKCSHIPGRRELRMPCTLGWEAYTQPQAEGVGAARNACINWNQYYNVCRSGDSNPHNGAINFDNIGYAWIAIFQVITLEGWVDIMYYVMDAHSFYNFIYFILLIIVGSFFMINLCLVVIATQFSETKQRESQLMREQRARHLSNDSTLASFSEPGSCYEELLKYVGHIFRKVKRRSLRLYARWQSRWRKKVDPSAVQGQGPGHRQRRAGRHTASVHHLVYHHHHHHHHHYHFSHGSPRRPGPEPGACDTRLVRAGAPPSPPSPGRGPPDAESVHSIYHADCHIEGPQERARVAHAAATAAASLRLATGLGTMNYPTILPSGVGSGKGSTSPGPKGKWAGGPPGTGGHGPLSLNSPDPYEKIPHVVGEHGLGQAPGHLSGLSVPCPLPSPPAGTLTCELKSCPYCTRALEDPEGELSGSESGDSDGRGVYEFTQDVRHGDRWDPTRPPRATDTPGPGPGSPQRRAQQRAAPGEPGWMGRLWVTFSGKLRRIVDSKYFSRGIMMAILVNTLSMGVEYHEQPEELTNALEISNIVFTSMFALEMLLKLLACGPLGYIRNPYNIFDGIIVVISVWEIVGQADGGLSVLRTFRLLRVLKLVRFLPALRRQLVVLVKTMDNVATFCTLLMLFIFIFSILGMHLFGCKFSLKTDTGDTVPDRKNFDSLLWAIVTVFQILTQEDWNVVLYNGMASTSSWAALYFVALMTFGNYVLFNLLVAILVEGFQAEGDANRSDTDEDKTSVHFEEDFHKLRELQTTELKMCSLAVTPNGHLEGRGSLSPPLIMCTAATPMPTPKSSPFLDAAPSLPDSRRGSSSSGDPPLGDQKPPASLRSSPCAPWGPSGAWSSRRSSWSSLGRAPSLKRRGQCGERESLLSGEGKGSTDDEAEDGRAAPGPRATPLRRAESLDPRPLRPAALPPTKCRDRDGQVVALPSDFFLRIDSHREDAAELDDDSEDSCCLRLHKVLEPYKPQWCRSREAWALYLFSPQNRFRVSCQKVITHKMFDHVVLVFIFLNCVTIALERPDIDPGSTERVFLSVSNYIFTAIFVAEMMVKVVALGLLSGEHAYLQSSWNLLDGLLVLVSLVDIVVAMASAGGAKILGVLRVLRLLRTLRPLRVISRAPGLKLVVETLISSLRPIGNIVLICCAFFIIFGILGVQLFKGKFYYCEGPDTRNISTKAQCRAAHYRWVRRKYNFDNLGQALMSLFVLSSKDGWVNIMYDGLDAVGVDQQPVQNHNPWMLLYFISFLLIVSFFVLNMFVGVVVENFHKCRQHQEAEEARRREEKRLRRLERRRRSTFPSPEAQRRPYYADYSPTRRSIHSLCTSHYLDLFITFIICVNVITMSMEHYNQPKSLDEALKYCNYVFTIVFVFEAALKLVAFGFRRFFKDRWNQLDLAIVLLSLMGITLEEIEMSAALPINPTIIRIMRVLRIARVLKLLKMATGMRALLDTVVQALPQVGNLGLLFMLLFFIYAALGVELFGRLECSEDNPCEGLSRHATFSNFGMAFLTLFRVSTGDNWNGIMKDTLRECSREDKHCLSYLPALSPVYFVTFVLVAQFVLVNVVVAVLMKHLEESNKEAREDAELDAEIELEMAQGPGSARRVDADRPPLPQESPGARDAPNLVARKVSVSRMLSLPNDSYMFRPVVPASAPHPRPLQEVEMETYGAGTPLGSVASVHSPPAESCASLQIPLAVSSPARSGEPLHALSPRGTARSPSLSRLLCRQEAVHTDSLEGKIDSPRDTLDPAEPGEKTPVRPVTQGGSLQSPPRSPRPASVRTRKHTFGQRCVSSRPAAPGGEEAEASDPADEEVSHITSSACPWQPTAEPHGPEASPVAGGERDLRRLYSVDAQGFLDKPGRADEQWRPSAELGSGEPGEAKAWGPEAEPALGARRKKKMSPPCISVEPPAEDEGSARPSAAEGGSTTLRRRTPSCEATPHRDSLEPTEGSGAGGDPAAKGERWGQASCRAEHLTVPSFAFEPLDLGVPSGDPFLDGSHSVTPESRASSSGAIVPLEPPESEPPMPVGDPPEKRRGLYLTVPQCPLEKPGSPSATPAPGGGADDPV
# [3] = target: T1, Polyadenylate-binding protein 1 (Homo sapiens, UniProt P11940); assay: PABP1 MLLE–PAM2 binding inhibitor potency, dose response, biochemical, fluorescence polarization, FITC-PAM2 peptide (AID 602259); type: functional; details: read-out: IC50_Mean
# T1 sequence (P11940 whole entry): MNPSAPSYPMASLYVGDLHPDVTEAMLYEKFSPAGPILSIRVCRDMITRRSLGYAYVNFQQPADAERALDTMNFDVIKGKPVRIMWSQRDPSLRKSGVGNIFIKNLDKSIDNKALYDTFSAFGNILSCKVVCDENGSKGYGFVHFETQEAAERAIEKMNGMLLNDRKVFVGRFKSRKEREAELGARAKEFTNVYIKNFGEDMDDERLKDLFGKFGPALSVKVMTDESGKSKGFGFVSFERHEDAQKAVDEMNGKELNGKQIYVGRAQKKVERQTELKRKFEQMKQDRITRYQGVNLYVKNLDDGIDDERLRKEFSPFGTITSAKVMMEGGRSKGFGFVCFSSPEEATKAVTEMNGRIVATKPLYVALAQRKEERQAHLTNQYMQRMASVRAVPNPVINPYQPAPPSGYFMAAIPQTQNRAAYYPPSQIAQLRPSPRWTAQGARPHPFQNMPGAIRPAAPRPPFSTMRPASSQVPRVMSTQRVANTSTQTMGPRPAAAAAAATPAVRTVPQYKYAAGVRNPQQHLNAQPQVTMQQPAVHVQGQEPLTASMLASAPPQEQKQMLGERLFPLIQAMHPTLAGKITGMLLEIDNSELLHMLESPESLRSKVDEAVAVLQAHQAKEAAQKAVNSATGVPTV
# [4] = target: T1, Polyadenylate-binding protein 1; assay: PABP1 MLLE–PAM2 interaction inhibitors, dose response, miRNA deadenylation inhibitor project, biochemical, fluorescence polarization, Cy5-PAM2 peptide, secondary (AID 602260); type: functional; details: read-out: IC50_Mean
# [5] = target: T2, Calpain-2 catalytic subunit (Sus scrofa, UniProt P43367); assay: pig calpain II inhibitor potency, dose response, biochemical, fluorogenic peptide substrate (AID 1420); type: functional
# T2 sequence (P43367 whole entry): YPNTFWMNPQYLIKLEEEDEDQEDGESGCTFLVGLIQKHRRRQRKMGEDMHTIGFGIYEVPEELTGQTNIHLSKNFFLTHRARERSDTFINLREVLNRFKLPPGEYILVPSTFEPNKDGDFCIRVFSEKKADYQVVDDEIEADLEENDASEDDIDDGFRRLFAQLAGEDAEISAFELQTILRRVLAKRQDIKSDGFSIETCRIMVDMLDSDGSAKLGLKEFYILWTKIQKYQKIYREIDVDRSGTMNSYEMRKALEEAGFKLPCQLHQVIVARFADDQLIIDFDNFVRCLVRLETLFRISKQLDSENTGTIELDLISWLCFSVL
# Cytochrome P450 2C9 = Cytochrome P450 2C9 (Homo sapiens, UniProt P11712)
# Cytochrome P450 2C9, sequence (P11712 whole entry): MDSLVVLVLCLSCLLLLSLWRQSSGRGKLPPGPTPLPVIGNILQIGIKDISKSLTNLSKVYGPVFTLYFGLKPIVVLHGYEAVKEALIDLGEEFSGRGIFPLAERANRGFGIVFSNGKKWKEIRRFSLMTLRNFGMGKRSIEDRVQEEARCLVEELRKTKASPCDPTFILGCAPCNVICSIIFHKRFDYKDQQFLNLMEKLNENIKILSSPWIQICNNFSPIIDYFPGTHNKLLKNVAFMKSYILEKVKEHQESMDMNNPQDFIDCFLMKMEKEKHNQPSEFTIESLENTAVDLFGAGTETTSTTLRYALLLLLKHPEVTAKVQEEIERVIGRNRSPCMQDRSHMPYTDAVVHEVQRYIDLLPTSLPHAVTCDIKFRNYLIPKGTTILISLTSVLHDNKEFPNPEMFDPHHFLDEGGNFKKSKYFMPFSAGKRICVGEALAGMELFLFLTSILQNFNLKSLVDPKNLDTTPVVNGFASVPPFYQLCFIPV
# Cytochrome P450 2D6 = Cytochrome P450 2D6 (Homo sapiens, UniProt P10635);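 also: CYP2D6 member of a cytochrome P450 panel assay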
# Cytochrome P450 2D6, sequence (P10635 whole entry): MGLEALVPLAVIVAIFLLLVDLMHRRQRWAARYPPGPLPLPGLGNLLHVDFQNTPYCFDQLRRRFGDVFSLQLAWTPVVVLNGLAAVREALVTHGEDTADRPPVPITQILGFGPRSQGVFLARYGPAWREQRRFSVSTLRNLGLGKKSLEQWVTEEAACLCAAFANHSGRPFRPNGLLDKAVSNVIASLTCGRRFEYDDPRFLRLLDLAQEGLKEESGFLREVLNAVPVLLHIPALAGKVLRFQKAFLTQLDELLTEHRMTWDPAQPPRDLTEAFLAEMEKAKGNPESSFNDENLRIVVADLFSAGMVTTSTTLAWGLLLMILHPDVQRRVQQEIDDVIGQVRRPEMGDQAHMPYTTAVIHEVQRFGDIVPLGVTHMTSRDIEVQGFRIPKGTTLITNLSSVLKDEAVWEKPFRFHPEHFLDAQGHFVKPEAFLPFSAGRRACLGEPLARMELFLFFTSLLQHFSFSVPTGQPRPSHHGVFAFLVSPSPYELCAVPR
# Cytochrome P450 3A4 = Cytochrome P450 3A4 (Homo sapiens, UniProt P08684);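 also: CYP3A4 tested as one member of a cytochrome P450 panel screen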
# Cytochrome P450 3A4, sequence (P08684 whole entry): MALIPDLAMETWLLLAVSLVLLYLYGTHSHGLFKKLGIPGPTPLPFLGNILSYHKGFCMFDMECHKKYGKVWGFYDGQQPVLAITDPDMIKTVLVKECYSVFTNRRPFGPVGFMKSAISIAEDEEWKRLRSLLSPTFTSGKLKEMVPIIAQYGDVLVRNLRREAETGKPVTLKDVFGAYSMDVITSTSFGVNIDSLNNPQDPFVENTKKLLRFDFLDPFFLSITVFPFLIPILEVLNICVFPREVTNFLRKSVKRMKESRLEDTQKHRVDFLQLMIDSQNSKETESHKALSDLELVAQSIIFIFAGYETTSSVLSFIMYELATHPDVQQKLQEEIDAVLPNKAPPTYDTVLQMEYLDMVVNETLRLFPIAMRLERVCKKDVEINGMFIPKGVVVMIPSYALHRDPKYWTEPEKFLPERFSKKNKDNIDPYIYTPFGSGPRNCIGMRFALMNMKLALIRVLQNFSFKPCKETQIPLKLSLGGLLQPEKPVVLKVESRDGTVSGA
# [6] = cytotoxicity toward NIH3T3 fibroblasts, dose response, counter-screen, cell-based, ATP luminescence, mouse fibroblasts (AID 2010); type: functional;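 also: cells exposed to compound for about 90 hours before reading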
# [7] = target: T3, Corticotropin-releasing factor receptor 2/Corticotropin-releasing factor-binding protein (Homo sapiens, UniProt P24387+Q13324); assay: activators of CRF receptor 2 with binding protein – uHTS hits, confirmation (AID 602473); type: functional; details: read-out: EC50_Mean
# T3 sequence (Q13324 whole entry): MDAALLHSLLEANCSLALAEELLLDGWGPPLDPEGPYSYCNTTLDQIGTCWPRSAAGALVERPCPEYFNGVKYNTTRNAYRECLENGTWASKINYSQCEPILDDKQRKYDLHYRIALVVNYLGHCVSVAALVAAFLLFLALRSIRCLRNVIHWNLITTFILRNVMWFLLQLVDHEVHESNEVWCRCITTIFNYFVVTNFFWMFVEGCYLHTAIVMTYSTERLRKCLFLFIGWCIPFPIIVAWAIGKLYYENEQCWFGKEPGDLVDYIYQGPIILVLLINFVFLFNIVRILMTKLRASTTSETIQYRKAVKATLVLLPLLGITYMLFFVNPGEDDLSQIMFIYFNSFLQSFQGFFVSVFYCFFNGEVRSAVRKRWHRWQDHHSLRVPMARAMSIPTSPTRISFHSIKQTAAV
# T3 sequence (P24387 whole entry): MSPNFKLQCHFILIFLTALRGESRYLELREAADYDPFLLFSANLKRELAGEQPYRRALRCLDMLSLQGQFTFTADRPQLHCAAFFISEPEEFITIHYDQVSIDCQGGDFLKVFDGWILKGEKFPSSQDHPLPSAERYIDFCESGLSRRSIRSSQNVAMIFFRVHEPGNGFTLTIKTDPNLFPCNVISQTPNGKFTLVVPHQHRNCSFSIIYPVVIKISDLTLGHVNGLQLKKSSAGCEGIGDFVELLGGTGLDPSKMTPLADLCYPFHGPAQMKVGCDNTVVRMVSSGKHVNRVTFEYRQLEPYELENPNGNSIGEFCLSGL
# [8] = inhibitors of intracellular T. cruzi replication, confirmation, NIH3T3 host cells, beta-gal luminescence (AID 2044); type: functional, cell-based;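 also: intracellular parasites grown in NIH/3T3 mouse fibroblasts as host cells; luminescent beta-galactosidase reporter signal from transgenic T. cruzi replicating inside host cells; inhibitors lower the luminescence signal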
# Streptococcus = assay: Group A Streptococcus viability loss, dose response, counter-screen for streptokinase expression inhibitor project, luminescence, BacTiterGlo (AID 1915); type: functional, organism-based;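 also: potency for reduction of bacterial viability or growth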
# [9] = tested on: Streptococcus sp. 'group A'; assay: growth inhibition of control SK(-) GAS strain, dose response, counter-screen for streptokinase expression inhibitor project, luminescence, kanamycin, BacTiterGlo, confirmation (AID 1900); type: functional, organism-based
# Streptokinase A = target: T4, Streptokinase A (Streptococcus pyogenes serotype M1, UniProt P10520); assay: S. pyogenes streptokinase expression inhibitors, potency, dose response, plasminogen activation absorbance, OD405 (AID 1914); type: functional, Streptococcus pyogenes M1 GAS;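 also: secreted streptokinase activity via plasminogen activation per viability signal from cell pellet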
# T4 sequence (P10520 whole entry): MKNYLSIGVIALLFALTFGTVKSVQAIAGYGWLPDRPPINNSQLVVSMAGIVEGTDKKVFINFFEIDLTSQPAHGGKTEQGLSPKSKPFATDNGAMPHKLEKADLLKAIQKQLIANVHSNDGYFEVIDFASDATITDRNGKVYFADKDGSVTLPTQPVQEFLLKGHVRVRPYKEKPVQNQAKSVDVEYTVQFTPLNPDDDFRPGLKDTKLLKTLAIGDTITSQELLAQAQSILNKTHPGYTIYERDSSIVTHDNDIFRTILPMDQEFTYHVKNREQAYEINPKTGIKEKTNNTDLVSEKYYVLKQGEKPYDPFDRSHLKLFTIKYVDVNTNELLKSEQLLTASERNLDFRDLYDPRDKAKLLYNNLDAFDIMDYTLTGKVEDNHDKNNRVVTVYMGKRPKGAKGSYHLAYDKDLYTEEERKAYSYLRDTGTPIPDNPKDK
# [10] = target: T5, Rac GTPase-activating protein 1 (Homo sapiens, UniProt Q9H0H5); assay: MgcRacGAP GTPase-activating activity inhibitors, confirmation, biochemical, ADP Hunter fluorescence, primary and confirmatory (AID 624330); type: functional
# T5 sequence (Q9H0H5 whole entry): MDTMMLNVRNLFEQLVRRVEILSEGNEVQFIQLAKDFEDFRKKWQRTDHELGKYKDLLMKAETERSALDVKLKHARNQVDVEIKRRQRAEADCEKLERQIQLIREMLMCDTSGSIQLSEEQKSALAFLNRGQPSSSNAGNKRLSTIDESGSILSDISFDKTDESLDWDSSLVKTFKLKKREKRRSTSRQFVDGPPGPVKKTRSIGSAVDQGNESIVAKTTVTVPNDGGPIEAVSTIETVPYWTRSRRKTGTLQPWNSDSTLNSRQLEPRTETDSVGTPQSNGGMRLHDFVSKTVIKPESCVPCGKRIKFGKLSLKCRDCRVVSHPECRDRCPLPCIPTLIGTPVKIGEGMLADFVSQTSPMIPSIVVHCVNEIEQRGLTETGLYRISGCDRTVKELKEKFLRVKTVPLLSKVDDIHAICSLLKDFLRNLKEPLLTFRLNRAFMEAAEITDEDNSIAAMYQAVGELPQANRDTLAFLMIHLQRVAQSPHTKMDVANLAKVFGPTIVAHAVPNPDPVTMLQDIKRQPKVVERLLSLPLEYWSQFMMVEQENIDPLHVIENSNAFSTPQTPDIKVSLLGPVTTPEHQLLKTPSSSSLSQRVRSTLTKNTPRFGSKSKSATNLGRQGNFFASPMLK
# [11] = target: T6, Heat shock factor protein 1 (Mus musculus, UniProt P38532); assay: inhibition of MG132-induced HSE-luciferase signal, confirmation, cell-based, NIH3T3, luminescence, dose retest (AID 2382); type: functional;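 also: NIH3T3 fibroblasts with HSF1-driven luciferase reporter stressed by proteasome inhibitor MG132; luminescence from HSF1-driven luciferase expression after 8 hours of MG132 stress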
# T6 sequence (P38532 whole entry): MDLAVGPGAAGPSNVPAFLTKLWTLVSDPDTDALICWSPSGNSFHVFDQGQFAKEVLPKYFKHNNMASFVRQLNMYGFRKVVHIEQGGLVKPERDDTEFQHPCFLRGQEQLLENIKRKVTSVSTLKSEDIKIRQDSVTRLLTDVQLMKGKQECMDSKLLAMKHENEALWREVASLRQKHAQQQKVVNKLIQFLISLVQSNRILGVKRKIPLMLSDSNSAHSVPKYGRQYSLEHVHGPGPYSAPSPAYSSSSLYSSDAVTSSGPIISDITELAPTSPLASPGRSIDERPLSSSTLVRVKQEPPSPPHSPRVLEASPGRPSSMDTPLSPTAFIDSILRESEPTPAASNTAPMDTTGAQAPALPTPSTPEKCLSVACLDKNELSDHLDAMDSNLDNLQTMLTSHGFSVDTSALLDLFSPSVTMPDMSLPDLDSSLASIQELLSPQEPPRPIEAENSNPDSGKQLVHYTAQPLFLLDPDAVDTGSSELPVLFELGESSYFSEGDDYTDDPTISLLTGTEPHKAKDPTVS
# [12] = MC4R antagonists, dose response, counter-screen for LGR2 antagonist project, cell-based, plate reader, cherry pick (AID 743444); type: functional;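 also: transfected HEK 293 cells stimulated with alpha-MSH peptide; potency of inhibitors of the alpha-MSH evoked signal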
# [13] = LGR2 antagonists, dose response, cell-based, HEK293, CRE-luciferase reporter, cherry pick, set 2 (AID 743343); type: functional;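 also: transfected cells were stimulated with diluted bursicon conditioned medium after compound addition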
# [14] = intracellular Trypanosoma cruzi inhibitors in host cells – cell-based, plate reader, cherry-pick samples, set 3, dose response (AID 651818); type: functional;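 also: compounds incubated with infected cells for about four days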
# FAD-linked sulfhydryl oxidase ALR, sequence (P55789 whole entry): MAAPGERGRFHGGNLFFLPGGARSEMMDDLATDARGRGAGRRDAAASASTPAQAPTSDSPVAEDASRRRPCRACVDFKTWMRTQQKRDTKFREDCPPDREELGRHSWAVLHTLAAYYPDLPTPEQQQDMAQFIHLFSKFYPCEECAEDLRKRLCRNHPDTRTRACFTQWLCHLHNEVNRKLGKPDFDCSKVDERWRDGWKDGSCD
structure (smiles),measurement,setting,value
O=C(CC(Nc1ccccc1Cl)C(=O)O)c1ccccc1 (centres undefined),AC50,[1],13 µM (active)
CC1CN(C(=O)N2c3ccccc3Sc3ccccc32)C(C)CC1=O (centres undefined),EC50,[2],8.31 µM (active)
Nc1ccc(-c2cc(N)n(-c3ccccc3)n2)cc1,AC50,[1],0.8 µM (active)
CC1(c2ccc3noc(-c4ccc(F)cc4)c3c2)OCCO1,IC50,[3],19.3 µM (active)
same,IC50,[4],> 66 µM (inactive)
Cc1ccc(-c2noc(CN(C(=O)CCCCCN3C(=O)c4ccccc4C3=O)C(C)C)n2)cc1,EC50,[2],7.53 µM (active)
same,IC50,[5],5.93 µM (not active)
[O-][S+](Cc1cc(Oc2ccccc2)nc(-c2ccccc2)n1)c1ccccc1 (centres undefined),AC50,Cytochrome P450 2C9,3.98 µM (inconclusive)
same,AC50,Cytochrome P450 2D6,1.26 µM (inconclusive)
same,EC50,[2],7.24 µM (active)
same,AC50,Cytochrome P450 3A4,28.2 µM (inconclusive)
Cn1cccc1Cc1nnc(SCC(=O)Nc2ccc(F)cc2)n1-c1ccc(F)cc1,EC50,[2],2.17 µM (active)
CCS(=O)(=O)n1nc(NCc2cccc(OC)c2)nc1NCc1cccc(OC)c1,EC50,[2],8.18 µM (active)
CN1Cc2c(N3CCOCC3)nc(SCc3ccccc3)c(C#N)c2CC1(C)C,EC50,[6],> 60 µM (not active)
same,IC50,[3],> 66 µM (inactive)
same,EC50,[7],> 53 µM (inactive)
same,IC50,[4],> 66 µM (inactive)
same,EC50,[8],0.62 µM (active)
COc1ccc(NC(=S)N=Nc2c(O)[nH]c3ccccc23)cc1,EC50,Streptococcus,14.1 µM (active)
same,EC50,[9],2.34 µM (active)
same,IC50,[3],> 66 µM (inactive)
same,EC50,Streptokinase A,> 150 µM (not active)
same,IC50,[4],> 66 µM (inactive)
Cc1cc(C)c(S(=O)(=O)Nc2ccc(N(C)C)cc2)c(C)c1-n1cnnn1,AC50,[1],0.197 µM (active)
same,IC50,[10],41.6 µM (active)
same,EC50,[11],> 195 µM (not active)
O=c1[nH]c2cc3c(cc2cc1CN(CCCO)Cc1nnnn1Cc1ccc(F)cc1)OCO3,AC50,Cytochrome P450 2C9,11.2 µM (inconclusive)
same,AC50,Cytochrome P450 2D6,12.6 µM (inconclusive)
same,IC50,[3],> 66 µM (inactive)
same,IC50,[4],> 66 µM (inactive)
CNc1nnc(CSc2nc3ccccc3s2)s1,AC50,[1],0.714 µM (active)
COc1cccc(/C=C2\SC(=S)N(c3cccnc3)C2=O)c1OC,IC50,[3],> 66 µM (inactive)
same,IC50,[4],> 66 µM (inactive)
Cn1cccc1Cc1nnc(SCC(=O)Nc2cccc(F)c2)n1-c1ccc(F)cc1,EC50,[2],3.35 µM (active)
Cc1ccc(C(=O)N2CCN(c3ccccc3O)CC2)cc1S(=O)(=O)N1CCCCC1,AC50,[1],9.33 µM (active)
CCCC(=O)N1CCCC(c2cc(C(=O)Nc3ccccc3)no2)C1 (centres undefined),AC50,[12],2.37 µM (active)
same,AC50,[13],1.89 µM (active)
O=C(N/N=C/c1cc(I)cc(I)c1O)c1ccccc1O,AC50,[14],3.17 µM (active)
C[C@@H]1CN([C@H](C)CO)C(=O)Cc2cc(NC(=O)Nc3ccc(C(F)(F)F)cc3)ccc2O[C@@H]1CN(C)Cc1ccccc1,AC50,[14],1.94 µM (active)
C[C@H]1CN([C@@H](C)CO)C(=O)c2cc(NC(=O)Nc3ccc(C(F)(F)F)cc3)ccc2O[C@H]1CN(C)Cc1ccc(Oc2ccccc2)cc1,AC50,[14],3.42 µM (active)
C[C@H](CO)N1C[C@H](C)[C@H](CN(C)Cc2ccc(Cl)c(Cl)c2)Oc2ccc(NC(=O)Nc3ccc4c(c3)OCO4)cc2CC1=O,AC50,[14],6.16 µM (active)
C[C@@H]1CN([C@H](C)CO)C(=O)c2cccc(NC(=O)Nc3ccccc3)c2O[C@H]1CN(C)Cc1ccc(C(=O)Nc2ccccc2N)cc1,AC50,[14],2.02 µM (active)
Cc1noc(C)c1NC(=O)Nc1cccc2c1O[C@H](CN(C)Cc1ccc(C(=O)Nc3ccccc3N)cc1)[C@@H](C)CN([C@@H](C)CO)C2=O,AC50,[14],3.76 µM (active)
C[C@@H]1CN([C@@H](C)CO)C(=O)c2cccc(NC(=O)C3CCCCC3)c2O[C@H]1CN(C)Cc1ccc(Oc2ccccc2)cc1,AC50,[14],1.71 µM (active)
Cc1ccc(S(=O)(=O)Nc2ccc3c(c2)CC(=O)N([C@H](C)CO)C[C@@H](C)[C@H](CN(C)Cc2ccc(Cl)c(Cl)c2)O3)cc1,AC50,[14],2.04 µM (active)
O=C(NC12CC3CC(CC(C3)C1)C2)c1cnccn1,IC50,[3],38.7 µM (inactive)
same,IC50,[4],43.3 µM (inactive)
C[C@@H]1CN([C@@H](C)CO)C(=O)c2cc(NS(=O)(=O)c3ccc(F)cc3)ccc2O[C@H]1CN(C)Cc1ccc(-c2ccccc2)cc1,AC50,[12],20.9 µM (active)
same,AC50,[13],45.7 µM (active)
